# Experimental data: patent US8815796B2, “Polyheterocyclic compounds highly potent as HCV inhibitors” (AB Pharma Ltd., priority 2010, dated 2014)
# Target: T1, HCV NS3-4A protease (Hepatitis C virus genotype 1a, UniProt P27958)
# T1 construct: HCV NS3-4A protease
# Assay: HCV NS3-4A protease assay in vitro (FRET-S substrate)
# Format: biochemical
# Conditions: not given
# Protocol: HCV NS3-4A Protease Assay In Vitro.
# The assay was conducted in Buffer A containing 30 mM NaCl, 5 mM CaCl2, 10 mM DTT, 50 mM Tris (pH7.8), using the Ac-Asp-Glu-Asp(EDANS)-Glu-Glu-Abu-ψ-[COO]-Ala-Ser-Lys (DABCYL)-NH2 (FRET-S) fluorescent peptide (AnaSpec, USA) as substrate. Briefly, 140 μL buffer A, 20 μL compounds dissolved in buffer A with different concentration and 20 μL HCV NS3-4A protease diluted in buffer A were added into 96-well plate respectively and mixed well. The reaction was initiate with adding 20 μL of FRET-S. Reactions were continuously monitored at 37° C. using a BMG Polarstar Galaxy (MTX Lab Systems, Inc. USA), with excitation and emission filters of 355 nm and 520 nm, respectively. The 50% inhibitory concentration (IC50) was calculated with Reed & Muench methods.
# T1 sequence (P27958 1027-1657): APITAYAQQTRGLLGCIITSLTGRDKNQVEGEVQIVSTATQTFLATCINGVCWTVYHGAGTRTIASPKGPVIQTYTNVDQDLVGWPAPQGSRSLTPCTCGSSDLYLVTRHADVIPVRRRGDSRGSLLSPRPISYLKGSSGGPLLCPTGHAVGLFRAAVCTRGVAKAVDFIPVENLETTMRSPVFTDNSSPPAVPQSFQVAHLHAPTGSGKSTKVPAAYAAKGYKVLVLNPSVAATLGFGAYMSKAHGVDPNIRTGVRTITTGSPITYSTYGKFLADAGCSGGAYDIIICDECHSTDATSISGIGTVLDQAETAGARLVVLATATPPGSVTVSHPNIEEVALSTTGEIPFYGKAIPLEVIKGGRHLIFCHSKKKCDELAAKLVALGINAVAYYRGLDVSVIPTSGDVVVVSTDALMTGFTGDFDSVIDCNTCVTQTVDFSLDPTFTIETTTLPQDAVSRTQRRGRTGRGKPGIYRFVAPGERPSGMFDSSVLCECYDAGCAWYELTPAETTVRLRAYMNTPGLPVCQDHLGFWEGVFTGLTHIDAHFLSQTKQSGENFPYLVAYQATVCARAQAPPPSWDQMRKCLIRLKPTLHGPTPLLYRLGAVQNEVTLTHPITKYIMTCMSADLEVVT
# T1 sequence (P27958 1658-1711): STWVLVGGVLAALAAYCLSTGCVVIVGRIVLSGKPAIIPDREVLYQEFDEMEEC
row,SMILES,IC50 [µM]
1,C=C[C@H]1C[C@@]1(NC(=O)C1C[C@@H](OC(=O)N2Cc3cc4c(cc3C2)OCO4)CN1C(=O)[C@@H](NC(=O)[C@@H](NC(=O)c1cnccn1)C1CCCCC1)C(C)(C)C)C(=O)NS(=O)(=O)C1CC1 (stereo partly shown) [Compound 30a],< 0.03
2,CC[C@H]1C[C@@]1(NC(=O)C1C[C@@H](OC(=O)N2Cc3cc4c(cc3C2)OCO4)CN1C(=O)[C@@H](NC(=O)[C@@H](NC(=O)Oc1ccccc1)C1CCCCC1)C(C)(C)C)C(=O)NS(=O)(=O)C1CC1 (stereo partly shown) [Compound 30z],< 0.03
3,CCC[C@H](NC(=O)C1C[C@@H](OC(=O)N2Cc3cc4c(cc3C2)OCCO4)CN1C(=O)[C@@H](NC(=O)[C@@H](NC(=O)c1cnccn1)C1CCCCC1)C(C)(C)C)C(=O)C(=O)NC1CC1 (stereo partly shown) [Compound 33b],0.03 to 0.2
4,CCC[C@H](NC(=O)C1C[C@@H](OC(=O)N2Cc3cc4c(cc3C2)OCO4)CN1C(=O)[C@@H](NC(=O)[C@@H](NC(=O)c1cnccn1)C1CCCCC1)C(C)(C)C)C(=O)C(=O)NC1CC1 (stereo partly shown) [Compound 33a],0.03 to 0.2
5,CCC[C@H](NC(=O)C1C[C@@H](OC(=O)N2Cc3ccc4c(c3C2)OCCO4)CN1C(=O)[C@@H](NC(=O)[C@@H](NC(=O)c1cnccn1)C1CCCCC1)C(C)(C)C)C(=O)C(=O)NC1CC1 (stereo partly shown) [Compound 33d],> 0.2
6,C=C[C@H]1C[C@@]1(NC(=O)C1C[C@@H](OC(=O)N2Cc3ccc4c(c3C2)OCO4)CN1C(=O)[C@@H](NC(=O)[C@@H](NC(=O)c1cnccn1)C1CCCCC1)C(C)(C)C)C(=O)NS(=O)(=O)C1CC1 (stereo partly shown) [Compound 30e],< 0.03
7,CC[C@H]1C[C@@]1(NC(=O)C1C[C@@H](OC(=O)N2Cc3cc4c(cc3C2)OCO4)CN1C(=O)[C@@H](NC(=O)[C@@H](NC(=O)OC)C1CCCCC1)C(C)(C)C)C(=O)NS(=O)(=O)C1CC1 (stereo partly shown) [Compound 30x],< 0.03
8,CC[C@H]1C[C@@]1(NC(=O)C1C[C@@H](OC(=O)N2Cc3cc4c(cc3C2)OCO4)CN1C(=O)[C@@H](NC(=O)[C@@H](NC(=O)OC1CCCC1)C1CCCCC1)C(C)(C)C)C(=O)NS(=O)(=O)C1CC1 (stereo partly shown) [Compound 30t],< 0.03
9,CC[C@H]1C[C@@]1(NC(=O)C1C[C@@H](OC(=O)N2Cc3ccc4c(c3C2)OCO4)CN1C(=O)[C@@H](NC(=O)[C@@H](NC(=O)c1cnccn1)C1CCCCC1)C(C)(C)C)C(=O)NS(=O)(=O)C1CC1 (stereo partly shown) [Compound 30f],< 0.03
10,CC[C@H]1C[C@@]1(NC(=O)C1C[C@@H](OC(=O)N2Cc3cc4c(cc3C2)OCO4)CN1C(=O)[C@@H](NC(=O)[C@@H](NC(=O)OC(C)(C)C)C1CCCCC1)C(C)(C)C)C(=O)NS(=O)(=O)C1CC1 (stereo partly shown) [Compound 30m],< 0.03
11,CCC[C@H](NC(=O)C1C[C@@H](OC(=O)N2Cc3ccc4c(c3C2)OCO4)CN1C(=O)[C@@H](NC(=O)[C@@H](NC(=O)c1cnccn1)C1CCCCC1)C(C)(C)C)C(=O)C(=O)NC1CC1 (stereo partly shown) [Compound 33c],0.03 to 0.2

# Same assay, conditions: HCV NS3-4A protease inhibition, 37° C., class symbols; read-out: NS3-NS4A IC50
row,SMILES,IC50 [µM]
1,C=C[C@H]1C[C@@]1(NC(=O)C1C[C@@H](OC(=O)N2Cc3cc4c(cc3C2)OCO4)CN1C(=O)[C@@H](NC(=O)NC(C)(C)C)C(C)(C)C)C(=O)NS(=O)(=O)C1CC1 (stereo partly shown) [Compound 30ar],< 0.03
2,O=C1N[C@]2(C(=O)NS(=O)(=O)C3CC3)C[C@H]2/C=C\CCCCC[C@H](Nc2cccc(F)c2)C(=O)N2C[C@H](OC(=O)N3Cc4cc5c(cc4C3)OCO5)C[C@@H]12 [Compound 15b],< 0.03
3,O=C1N[C@]2(C(=O)NS(=O)(=O)C3CC3)C[C@H]2/C=C\CCCCCN(C2CC2)C(=O)C2C[C@H](OC(=O)N3Cc4ccc5c(c4C3)OCO5)C[C@@H]12 (stereo partly shown) [Compound 21d],0.03 to 0.2
4,CC(C)(C)OC(=O)N[C@H]1CCCCC/C=C\[C@@H]2C[C@@]2(C(=O)NS(=O)(=O)C2CC2)NC(=O)[C@@H]2C[C@@H](OC(=O)N3Cc4ccc5c(c4C3)OCO5)CN2C1=O [Compound 12a],< 0.03
5,CN1CCCCC/C=C\[C@@H]2C[C@@]2(C(=O)NS(=O)(=O)C2CC2)NC(=O)[C@@H]2C[C@@H](OC(=O)N3Cc4cc5c(cc4C3)OCO5)CC2C1=O (stereo partly shown) [Compound 21e],< 0.03
6,CC(C)(C)OC(=O)N[C@H]1CCCCC/C=C\[C@@H]2C[C@@]2(C(=O)NS(=O)(=O)C2CC2)NC(=O)[C@@H]2C[C@@H](OC(=O)N3Cc4ccc5c(c4C3)OCCO5)CN2C1=O [Compound 12b],< 0.03
7,CC(C)(C)OC(=O)N[C@H]1CCCCC/C=C\[C@@H]2C[C@@]2(C(=O)O)NC(=O)[C@@H]2C[C@@H](OC(=O)N3Cc4ccc5c(c4C3)OCCO5)CN2C1=O [Compound 11b],> 0.2
8,CC(C)(C)OC(=O)N[C@H]1CCCCC/C=C\[C@@H]2C[C@@]2(C(=O)O)NC(=O)[C@@H]2C[C@@H](OC(=O)N3Cc4cc5c(cc4C3)OCCO5)CN2C1=O [Compound 11c],> 0.2
9,O=C1N[C@]2(C(=O)NS(=O)(=O)C3CC3)C[C@H]2/C=C\CCCCC[C@H](N2CCCS2(=O)=O)C(=O)N2C[C@H](OC(=O)N3Cc4cc5c(cc4C3)OCO5)C[C@@H]12 [Compound 12k],< 0.03
10,CC(C)OC(=O)N[C@H]1CCCCC/C=C\[C@@H]2C[C@@]2(C(=O)NS(=O)(=O)C2CC2)NC(=O)[C@@H]2C[C@@H](OC(=O)N3Cc4cc5c(cc4C3)OCO5)CN2C1=O [Compound 12q],< 0.03
11,C=C[C@H]1C[C@@]1(NC(=O)C1C[C@@H](OC(=O)N2Cc3ccc4c(c3C2)OCO4)CN1C(=O)[C@@H](NC(=O)OC(C)(C)C)C(C)(C)C)C(=O)NS(=O)(=O)C1CC1 (stereo partly shown) [Compound 30ah],< 0.03
12,CC(C)(C)OC(=O)N[C@H]1CCCCC/C=C\[C@@H]2C[C@@]2(C(=O)NS(=O)(=O)C2CC2)NC(=O)[C@@H]2C[C@@H](OC(=O)N3Cc4cc5c(cc4C3)OCO5)CN2C1=O [Compound 12d],< 0.03
13,C=C[C@H]1C[C@@]1(NC(=O)C1C[C@@H](OC(=O)N2Cc3cccc(F)c3C2)CN1C(=O)[C@@H](NC(=O)OC1CCCC1)C(C)(C)C)C(=O)NS(=O)(=O)C1CC1 (stereo partly shown) [Compound 30aq],< 0.03
14,CC[C@H]1C[C@@]1(NC(=O)C1C[C@@H](OC(=O)N(C)Cc2ccc3c(c2)OCO3)CN1C(=O)[C@@H](NC(=O)OC1CCCC1)C(C)(C)C)C(=O)NS(=O)(=O)C1CC1 (stereo partly shown) [Compound 30ap],< 0.03
15,O=C1N[C@]2(C(=O)NS(=O)(=O)C3CC3)C[C@H]2/C=C\CCCCC[C@H](Nc2ccccc2)C(=O)N2C[C@H](OC(=O)N3Cc4cc5c(cc4C3)OCO5)C[C@@H]12 [Compound 15a],< 0.03
16,CC(C)(C)OC(=O)N[C@H]1CCCCC/C=C\[C@@H]2C[C@@]2(C(=O)O)NC(=O)[C@@H]2C[C@@H](OC(=O)N3Cc4cc5c(cc4C3)OCO5)CN2C1=O [Compound 11d],> 0.2
17,CC[C@H]1C[C@@]1(NC(=O)C1C[C@@H](OC(=O)N2Cc3cc4c(cc3C2)OCO4)CN1C(=O)[C@@H](NC(=O)[C@@H](NS(=O)(=O)c1cccc2ccccc12)C1CCCCC1)C(C)(C)C)C(=O)NS(=O)(=O)C1CC1 (stereo partly shown) [Compound 30p],< 0.03
18,C=C[C@H]1C[C@@]1(NC(=O)C1C[C@@H](OC(=O)N2Cc3cc4c(cc3C2)OCO4)CN1C(=O)[C@@H](NC(=O)OC1CCCC1)C(C)(C)C)C(=O)NS(=O)(=O)C1CC1 (stereo partly shown) [Compound 30ak],< 0.03
19,O=C1N[C@]2(C(=O)NS(=O)(=O)C3CC3)C[C@H]2/C=C\CCCCN(C2CC2)C(=O)C2C[C@H](OC(=O)N3Cc4cc5c(cc4C3)OCO5)C[C@@H]12 (stereo partly shown) [Compound 21a],0.03 to 0.2
20,O=C(N[C@H]1CCCCC/C=C\[C@@H]2C[C@@]2(C(=O)NS(=O)(=O)C2CC2)NC(=O)[C@@H]2C[C@@H](OC(=O)N3Cc4cc5c(cc4C3)OCO5)CN2C1=O)OC1CCCC1 [Compound 12r],< 0.03
21,CC[C@H]1C[C@@]1(NC(=O)C1C[C@@H](OC(=O)N2Cc3cc4c(cc3C2)OCO4)CN1C(=O)[C@@H](NC(=O)OC(C)(C)C)C(C)(C)C)C(=O)NS(=O)(=O)C1CC1 (stereo partly shown) [Compound 30ag],< 0.03
22,O=C1N[C@]2(C(=O)NS(=O)(=O)C3CC3)C[C@H]2/C=C\CCCCC[C@H](NS(=O)(=O)c2ccccc2)C(=O)N2C[C@H](OC(=O)N3Cc4cc5c(cc4C3)OCO5)C[C@@H]12 [Compound 16b],< 0.03
23,CC[C@H]1C[C@@]1(NC(=O)C1C[C@@H](OC(=O)N2Cc3cc4c(cc3C2)OCO4)CN1C(=O)[C@@H](NC(=O)[C@@H](NS(C)(=O)=O)C1CCCCC1)C(C)(C)C)C(=O)NS(=O)(=O)C1CC1 (stereo partly shown) [Compound 30n],< 0.03
24,C=C[C@H]1C[C@@]1(NC(=O)C1C[C@@H](OC(=O)N2Cc3cccc(F)c3C2)CN1C(=O)[C@@H](NC(=O)OC(C)(C)C)C(C)(C)C)C(=O)NS(=O)(=O)C1CC1 (stereo partly shown) [Compound 30aj],< 0.03
25,CC(C)(C)OC(=O)N[C@H]1CCCCC/C=C\[C@@H]2C[C@@]2(C(=O)NS(=O)(=O)C2CC2)NC(=O)[C@@H]2C[C@@H](OC(=O)N3Cc4ccc5c(c4C3)OCCCO5)CN2C1=O [Compound 12n],< 0.03
26,CC[C@H]1C[C@@]1(NC(=O)C1C[C@@H](OC(=O)N2Cc3cc4c(cc3C2)OCO4)CN1C(=O)[C@@H](NC(=O)OC1CCCC1)C(C)(C)C)C(=O)NS(=O)(=O)C1CC1 (stereo partly shown) [Compound 30am],< 0.03
27,CC(C)(C)OC(=O)N([C@H]1CCCCC/C=C\[C@@H]2C[C@@]2(C(=O)NS(=O)(=O)C2CC2)NC(=O)[C@@H]2C[C@@H](OC(=O)N3Cc4cc5c(cc4C3)OCO5)CN2C1=O)S(C)(=O)=O [Compound 12s],< 0.03
28,CC(C)S(=O)(=O)NC(=O)[C@@]12C[C@H]1/C=C\CCCCC[C@H](NC(=O)OC(C)(C)C)C(=O)N1C[C@H](OC(=O)N3Cc4cc5c(cc4C3)OCO5)C[C@H]1C(=O)N2 [Compound 12h],< 0.03
29,CC[C@H]1C[C@@]1(NC(=O)C1C[C@@H](OC(=O)N2Cc3cc4c(cc3C2)OCO4)CN1C(=O)[C@@H](NC(=O)[C@@H](NS(=O)(=O)c1ccccc1)C1CCCCC1)C(C)(C)C)C(=O)NS(=O)(=O)C1CC1 (stereo partly shown) [Compound 30r],< 0.03
